Measured values taken from publication PMC9229294, “Pyridazinones and Structurally Related Derivatives with Anti-Inflammatory Activity” (Molecules, 2022).
Read-outs that look alike come from different tables or passages of the source.

Assays:
[1] = system: THP1-Blue cells; experiment: Cytotoxicity, CellTiter-Glo, THP1-Blue cells; assay type: cell-based, human; settings: for Cytotoxicity in THP1-Blue Cells (FPR peptide agonists): peptides tested at 5 nM, N.T. = no cytotoxicity
Experimental: (§1) Our studies included 175 compounds that were previously synthesized and characterized at NEUROFARBA, Pharmaceutical and Nutraceutical Section, University of Florence, Italy. We previously evaluated the FPR1/FPR2 agonist activity of these compounds by evaluating their ability to induce Ca^2+ mobilization in FPR-transfected HL60 cells and human neutrophils. […] All test compounds were dissolved in DMSO at stock concentrations of 10 mM and stored at −20 °C. For primary screening assays (analysis of NF-κB activation, IL-6 production, and cytotoxicity), the following final concentrations of the compounds were used: 3.125, 6.25, 12.5, 25, and 50 µM; the final concentration of DMSO was 1% in all samples.
(§2) The cytotoxicity was analyzed with a CellTiter-Glo Luminescent Cell Viability Assay Kit from Promega (Madison, WI, USA), according to the manufacturer’s protocol. The luminescent ATP assays are based on a luciferase enzymatic reaction which uses ATP from viable cells to generate photons. For this assay, the cells were incubated with the compounds under investigation for 24 h. After treatment, the cells were equilibrated to room temperature for 30 min, luciferase + luciferin substrate was added, and the samples were analyzed with a Fluoroscan Ascent FL (Thermo Fisher Scientific, Waltham, MA, USA). The IC50 values were calculated by plotting the percentage inhibition against the logarithm of the inhibitor concentration (at least five points).

[2] = target: T1, FPR2 (Homo sapiens, UniProt P25090); settings: FPR2-transfected HL-60 cells, read-out: Ca2+ Mobilization FPR2 EC50 in HL-60 Cells, cited from earlier work
T1 construct: expressed in transfected cells; host or cells: HL-60 cells (FPR2-HL60)
T1 sequence (P25090 1-351): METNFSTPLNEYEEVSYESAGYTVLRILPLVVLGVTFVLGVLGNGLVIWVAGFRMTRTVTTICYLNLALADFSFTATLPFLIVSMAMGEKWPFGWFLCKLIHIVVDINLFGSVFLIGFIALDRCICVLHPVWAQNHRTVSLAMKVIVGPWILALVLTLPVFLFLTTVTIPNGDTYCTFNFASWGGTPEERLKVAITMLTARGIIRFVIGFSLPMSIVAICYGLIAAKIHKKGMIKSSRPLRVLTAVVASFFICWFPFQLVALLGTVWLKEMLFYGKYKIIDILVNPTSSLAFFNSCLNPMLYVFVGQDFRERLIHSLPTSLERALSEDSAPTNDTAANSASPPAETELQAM

[3] = Cytotoxicity, CellTiter-Glo, MonoMac-6 cells; assay type: cell-based, human; settings: human, MonoMac-6 cells
Experimental: as §1, §2

[4] = system: LPS-induced NF-κB activity in THP1-Blue cells; experiment: Inhibition of LPS-induced NF-κB transcriptional activity, alkaline phosphatase reporter, THP1-Blue cells; assay type: cell-based, human; settings: for IC50: LPS-induced NF-κB activity, human THP1-Blue cells, N.A. = no activity at 50 µM; for Inhibition of LPS-induced NF-κB activity (in words): THP1-Blue cells, 250 ng/mL LPS, 24 h; for Observed class for inhibition of NF-κB activity: experimentally observed, Active or N.A.
Experimental: as §1
The activation of NF-κB was measured using an alkaline phosphatase reporter assay in human monocytic THP1-Blue cells stably transfected with a secreted embryonic alkaline phosphatase gene that is under the control of a promoter inducible by the NF-κB. The THP1-Blue cells (2 × 10^5 cells/well) were pretreated with the test compound or DMSO for 30 min, followed by an addition of 250 ng/mL LPS for 24 h. Alkaline phosphatase activity was determined in cell supernatants using a QUANTI-Blue mix (InvivoGen) and measured at 655 nm and compared with positive control samples (LPS).

[5] = system: LPS-induced IL-6 production in MonoMac-6 cells; experiment: Inhibition of LPS-induced IL-6 production in MonoMac-6 cells (ELISA); assay type: cell-based, human; settings: for IC50: Homo sapiens; for Inhibition of LPS-induced IL-6 production (in words): MonoMac-6 cells, 250 ng/mL LPS, 24 h
Experimental: as §1
A human IL-6 ELISA kit (BD Biosciences, San Jose, CA, USA) was used to measure IL-6 production. […] The cells were pretreated with the test compound or DMSO for 30 min, followed by addition of 250 ng/mL LPS for 24 h. The IC50 values for IL-6 production were calculated by plotting the percentage inhibition against the logarithm of the inhibitor concentration (at least five points).

[6] = target: T2, FPR1 (Homo sapiens, UniProt P21462); settings: FPR1-transfected HL-60 cells, read-out: Ca2+ Mobilization FPR1 EC50 in HL-60 Cells, cited from earlier work
T2 construct: expressed in transfected cells; host or cells: HL-60 cells (FPR1-HL60)
T2 sequence (P21462 1-350): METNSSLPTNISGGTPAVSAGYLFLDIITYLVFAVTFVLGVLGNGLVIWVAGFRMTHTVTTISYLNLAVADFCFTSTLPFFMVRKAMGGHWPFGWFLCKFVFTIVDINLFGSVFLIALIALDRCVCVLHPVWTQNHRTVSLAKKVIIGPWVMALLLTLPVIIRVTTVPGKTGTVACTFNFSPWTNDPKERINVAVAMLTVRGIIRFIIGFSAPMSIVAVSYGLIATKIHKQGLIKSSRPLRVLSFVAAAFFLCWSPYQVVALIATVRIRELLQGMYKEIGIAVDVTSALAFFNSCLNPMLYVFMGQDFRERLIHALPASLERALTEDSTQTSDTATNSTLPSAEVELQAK

[7] = system: rats with CFA-induced inflammatory arthritis; set-up: method as in PMID 32388428; settings: cited from earlier work
[8] = Cytotoxicity, CellTiter-Glo, THP1-Blue cells; assay type: cell-based, human; settings: human, THP1-Blue cells
Experimental: as §1, §2

[9] = Table 3, as reported previously (see Table 1)
[10] = MONO-MAC-6, read-out: Inhibition of IL-6 Production IC50 in MonoMac-6 Cells
[11] = N.T. = no cytotoxicity at 50 µM, read-out: Cytotoxicity IC50 in THP1-Blue Cells

SMILES | IC50 ([1]; THP1-Blue cells, N.T. = no cytotoxicity at 50 µM) [µM] | EC50 ([2]; agonist activity from Table 1) [µM] | EC50 [2, 9] [µM] | IC50 at 24 h [3] [µM] | IC50 [4] [µM] | IC50 [5, 10] [µM] | EC50 ([6]; agonist activity from Table 1) [µM] | EC50 [6, 9] [µM] | Pain hypersensitivity [7] | Inhibition of LPS-induced NF-κB activity (in words) [4] | IC50 at 24 h ([8]; 24 h, read-out: Cytotoxicity IC50) [µM] | IC50 at 24 h [8, 11] [µM] | Cytotoxicity in THP1-Blue cells (in words) ([1]; 24 h) | IC50 ([4]; Homo sapiens) [µM] | Observed class for inhibition of NF-κB activity [4] | IC50 ([5]; MONO-MAC-6, 24 h, read-out: IC50, LPS-induced IL-6 production) [µM] | Inhibition of LPS-induced IL-6 production (in words) [5] | Cytotoxicity in THP1-Blue Cells (FPR peptide agonists) ([1]; THP1-Blue cells)
CC1CC(c2ccccc2)=NN(CC(=O)Nc2ccc(Br)cc2)C1=O (stereo not drawn) [Compound 125] | > 50 | 10 | 10 | > 50 | 22.4 ± 0.7 | 7.2 ± 0.03 | 24.4 | 24.4 | – | – | – | – | – | – | – | – | – | –
COc1cccc(Nc2c(C(C)=O)c(C)nn(CC(=O)Nc3ccc(Br)cc3)c2=O)c1 [Compound 73] | – | – | – | – | – | – | – | – | reduce pain hypersensitivity | inactive | – | – | – | – | – | – | – | –
COc1cccc(Nc2c(C)c(-c3ccccc3)nn2CC(=O)Nc2ccc(Br)cc2)c1 [Compound 158] | – | > 50 | – | – | – | – | > 50 | – | – | – | 22 to 26 | 22.4 ± 5.2 | cytotoxic | 8.8 ± 1.1 | Active | – | – | –
COc1cccc(Cc2cc(C)nn(C(C)(C)C(=O)Nc3ccc(Br)cc3)c2=O)c1 [Compound 89] | – | 20.4 | 20.4 | > 50 | – | 27.9 ± 2.2 | 6.3 | 6.3 | – | – | – | > 50 | – | 29.2 ± 1 | Active | – | – | –
O=C(Cn1c(=O)ccn(-c2ccccc2)c1=O)Nc1ccc(Br)cc1 [Compound 153] | – | – | 8.9 | > 50 | – | 10.7 ± 0.1 | 12.5 | – | – | – | – | > 50 | – | 20.8 ± 0.5 | Active | < 10 | – | –
COc1ccc(-c2cc(Cc3cccc(OC)c3)c(=O)n(CC(=O)Nc3ccc(F)cc3)n2)cc1 [Compound 38] | – | > 50 | > 50 | > 50 | – | 20.3 ± 1.8 | > 50 | > 50 | – | – | – | > 50 | – | 19.6 ± 4.3 | Active | – | inhibitors of IL-6 production | –
CSCC[C@H](NC(=O)[C@@H](NC(=O)[C@H](CCSC)NC(=O)[C@H](Cc1ccc(O)cc1)NC(=O)[C@H](CCCCN)NC(=O)[C@@H](N)Cc1c[nH]c2ccccc12)C(C)C)C(=O)O [WKYMVM, Trp-Lys-Tyr-Met-Val-Met, reference compound] | – | – | – | – | – | – | – | – | – | – | – | – | – | – | – | – | – | N.T. (No cytotoxicity was observed at the highest concentration tested (50 µM))
COc1cccc(Cc2cc(-c3ccc(Cl)cc3)nn(CC(=O)Nc3ccc(F)cc3)c2=O)c1 [Compound 42] | – | > 50 | > 50 | > 50 | – | 35.6 ± 3.1 | > 50 | > 50 | – | active | – | > 50 | – | 22.5 ± 2.3 | – | – | inhibitors of IL-6 production | –
CCc1c(C)nn(CC(=O)Nc2ccc(Br)cc2)c(=O)c1Cc1cccc(OC)c1 [Compound 78] | – | – | 1.9 | > 50 | – | 17 ± 0.4 | – | 3.2 | – | – | – | > 50 | – | 20.7 ± 0.7 | Active | – | – | –
CSCC[C@H](NC=O)C(=O)N[C@@H](CC(C)C)C(=O)N[C@@H](Cc1ccccc1)C(=O)O [f MLF] | – | – | – | – | – | – | – | – | – | – | – | – | – | – | – | – | – | N.T. (No cytotoxicity was observed at the highest concentration tested (50 µM))
COc1cccc(Cc2cc(-c3ccc(F)cc3)nn(CC(=O)Nc3ccc(F)cc3)c2=O)c1 [Compound 47] | – | > 50 | > 50 | > 50 | – | 18.8 ± 2.9 | > 50 | > 50 | – | active | – | > 50 | – | 3.4 ± 0.2 | – | – | inhibitors of IL-6 production | –
CCCc1c(C)nn(CC(=O)Nc2ccc(Br)cc2)c(=O)c1Cc1cccc(OC)c1 [Compound 79] | – | 4.6 | – | > 50 | – | 13.7 ± 1.4 | 2.2 | – | – | – | – | > 50 | – | 15.7 ± 1.4 | Active | – | – | –
COc1cccc(Cc2c(C)c(C)nn(CC(=O)Nc3ccc(Br)cc3)c2=O)c1 [Compound 69] | – | – | – | – | – | – | – | – | reduce pain hypersensitivity | inhibited | – | > 50 | – | 34.5 ± 2.6 | Active | – | – | –
CCC[C@H](C(=O)Nc1ccc(Br)cc1)n1nc(C)cc(Cc2cccc(OC)c2)c1=O [Compound 98] | – | 0.84 | 0.84 | > 50 | – | 5.6 ± 0.3 | 3 | 3 | – | – | – | > 50 | – | 10.6 ± 2.3 | – | – | – | –
